Assay [1] concerns HIV-1. The settings on record: drug - cut-off, Larder & Harrigan AIDS 2000; cited from earlier work.
Assay [2] has as its system patient's recombinant virus (HIV-1). The experiment in a line: Phenotypic susceptibility, MT-4 cell viral cytopathic effect protection assay (fold resistance vs wild-type control virus). The assay is classed as cell-based. The method, then:
Phenotypic susceptibility was determined using a MT-4 cell viral cytopathic effect protection assay. See, e.g., Kashiwase et al., Chemotherapy 45(1):48-55 (1999), expressly incorporated herein by reference; Larder et al., Antimicrob. Agents Chemother. 43(8): 1961-1967 (1999). […] The procedure is also described in WO 97/27480.
On the technique in general: Damage to the host cells serves as the signal in cytopathic effect assays.

Assay [3] relates to HIV-1. The settings on record: cited from earlier work.
Setting [4] is: HIV-1 mutation 333D/E in addition to M184V.

Where two headings read alike, the source gives them in different places.

Take `Cc1cccc(C)c1OCC(=O)N[C@@H](Cc1ccccc1)[C@@H](O)C[C@H](Cc1ccccc1)NC(=O)[C@H](C(C)C)N1CCCNC1=O` [Lopinavir]: the “Biological cut-off (fold resistance)” value in assay [1] is recorded as 2.5.
For the compound `Nc1nc(NC2CC2)c2ncn([C@H]3C=C[C@@H](CO)C3)c2n1` [1592 U89], the “Drug resistance level (from the phenotypic data)” value (shortened to “Drug resistance level”) was “S/S (A fold resistance of less than or equal to 4 is considered to be)” in assay [2] (test sample 1); “S (A fold resistance of less than or equal to 4 is considered to be)” in assay [2] (test sample 2); “S/S (A fold resistance of less than or equal to 4 is considered to be)” in assay [2] (test sample 3); “S/S (A fold resistance of less than or equal to 4 is considered to be)” in assay [2] (test sample 4); “S/S (A fold resistance of less than or equal to 4 is considered to be)” in assay [2] (test sample 5); “I (greater than 4 and less than 10 is considered to be)” in assay [2] (test sample 6). Besides, the “Drug resistance level” value is “S/S (A fold resistance of less than or equal to 4 is considered to be)” in assay [2] (test sample 7); “I (greater than 4 and less than 10 is considered to be)” in assay [2] (test sample 8); “S/S (A fold resistance of less than or equal to 4 is considered to be)” in assay [2] (test sample 9); “S/S (A fold resistance of less than or equal to 4 is considered to be)” in assay [2] (test sample 10). For the same compound, the “Biological cut-off (fold resistance)” value in assay [1] was 3.0.
On to `Nc1ccn([C@H]2CC[C@@H](CO)O2)c(=O)n1` [DDC], for which the “Biological cut-off (fold resistance)” value in assay [1] was 2.0.
`Cc1cn([C@H]2C[C@H](N=[N+]=[N-])[C@@H](CO)O2)c(=O)[nH]c1=O` [AZT, 3′-azido-3′-deoxythymidine]: the “Biological cut-off (fold resistance)” value in assay [1] is reported as 4.0. The “Effect of mutation on resistance” value in assay [3] (setting [4]) is given as “dual AZT/3TC resistance”; in assay [3] (HIV-1 mutation M184V) it was “reverses AZT resistance”.
With `CC(C)CN(C[C@@H](O)[C@H](Cc1ccccc1)NC(=O)O[C@H]1CCOC1)S(=O)(=O)c1ccc(N)cc1` [VX-478], the “Biological cut-off (fold resistance)” value in assay [1] is reported as 2.0. The “Effect of mutation on susceptibility in vitro” value in assay [3] (HIV-1 mutation N88S) was “hypersensitivity”.
Consider `CC(C)Nc1cccnc1N1CCN(C(=O)c2cc3cc(NS(C)(=O)=O)ccc3[nH]2)CC1` [Delavirdine], for which, in assay [1], the “Biological cut-off (fold resistance)” value is 10.0.
Consider `CC(C)(C)NC(=O)[C@@H]1CN(Cc2cccnc2)CCN1C[C@@H](O)C[C@@H](Cc1ccccc1)C(=O)N[C@H]1c2ccccc2C[C@H]1O` [Indinavir], for which the “Biological cut-off (fold resistance)” value in assay [1] was 3.0.
In the case of `CC(C)c1nc(CN(C)C(=O)N[C@H](C(=O)N[C@@H](Cc2ccccc2)C[C@H](O)[C@H](Cc2ccccc2)NC(=O)OCc2cncs2)C(C)C)cs1` [Ritonavir], the “Biological cut-off (fold resistance)” value in assay [1] is given as 3.5.
In the case of `Nc1ccn([C@@H]2CS[C@H](CO)O2)c(=O)n1` [3TC], the “Drug resistance level” value in assay [2] (test sample 1) was “S/S (A fold resistance of less than or equal to 4 is considered to be)”; in assay [2] (test sample 2) it was “R/R (if the value is greater than 10, it is considered to be)”; in assay [2] (test sample 3), “R/R (if the value is greater than 10, it is considered to be)”; in assay [2] (test sample 4), “S/S (A fold resistance of less than or equal to 4 is considered to be)”; in assay [2] (test sample 5), “R/R (if the value is greater than 10, it is considered to be)”; in assay [2] (test sample 6), “R (if the value is greater than 10, it is considered to be)”. Moreover, the “Drug resistance level” value is “R/R (if the value is greater than 10, it is considered to be)” in assay [2] (test sample 7); “R/R (if the value is greater than 10, it is considered to be)” in assay [2] (test sample 8); “R/R (if the value is greater than 10, it is considered to be)” in assay [2] (test sample 9); “S/S (A fold resistance of less than or equal to 4 is considered to be)” in assay [2] (test sample 10). Also, the “Biological cut-off (fold resistance)” value in assay [1] was 4.5. Moreover, the “Effect of mutation on resistance” value in assay [3] (setting [4]) is recorded as “dual AZT/3TC resistance”; in assay [3] (HIV-1 mutation M184V), “confers resistance”.
Consider `Cc1ccnc2c1NC(=O)c1cccnc1N2C1CC1` [Nevirapine], for which the “Biological cut-off (fold resistance)” value in assay [1] is reported as 8.0.
On to `CC(C)(C)NC(=O)[C@@H]1C[C@@H]2CCCC[C@@H]2CN1C[C@@H](O)[C@H](Cc1ccccc1)NC(=O)[C@H](CC(N)=O)NC(=O)c1ccc2ccccc2n1` [Saquinavir], for which the “Biological cut-off (fold resistance)” value in assay [1] is on record as 2.5.
For the compound `Cc1c(O)cccc1C(=O)N[C@@H](CSc1ccccc1)[C@H](O)CN1C[C@H]2CCCC[C@H]2C[C@H]1C(=O)NC(C)(C)C` [Nelfinavir], the “Biological cut-off (fold resistance)” value in assay [1] is recorded as 4.0.
On to `O=C1Nc2ccc(Cl)cc2[C@@](C#CC2CC2)(C(F)(F)F)O1` [DMP266], for which, in assay [1], the “Biological cut-off (fold resistance)” value is listed as 6.0.
As to `Cc1cn([C@H]2C=C[C@@H](CO)O2)c(=O)[nH]c1=O` [D4T], the “Mean fold change of IC50” value came to 1.1 fold in assay [2] (92 of 188 test samples with d4T IC50<3-fold), 7.7 fold in assay [2] (96 of 188 test samples with d4T IC50>3-fold), 1.2 fold in assay [2] (1040 of 2286 samples with d4T IC50<3-fold) and 9.0 fold in assay [2] (1246 of 2286 samples with d4T IC50>3-fold). Moreover, in assay [1], the “Biological cut-off (fold resistance)” value is listed as 1.75.
For `OC[C@@H]1CC[C@H](n2cnc3c(O)ncnc32)O1` [DDI, 2′,3′-dideoxyinosine], the “Biological cut-off (fold resistance)” value in assay [1] is reported as 2.0.

Source of the values: patent US20030190603A1, “Method and system for predicting therapeutic agent resistance and for defining the genetic basis of drug resistance using neural networks” (priority 2003, published 2003).
